Results reported in patent US20080021026A1, “BENZOTHIOPHENE INHIBITORS OF RHO KINASE” (priority 2006, published 2008).
pIC50: −log10 of the molar value.

Target: T1, recombinant N-terminal GST-tagged human Rho kinase 2 (ROCK2, amino acids 1-552) (Homo sapiens, UniProt O75116)
T1 construct: ROCK2, amino acids 1-552; purchased Invitrogen Inc. PV3759
Assay: In vitro Rho kinase assay (luciferase-based ATP consumption), ROCK2
Assay type: biochemical
Settings: recombinant GST-tagged human ROCK2, luciferase-based ATP consumption; read-out: ROCK2 IC50
Experimental: In Vitro Rho Kinase Assay
Rho kinase biochemical assays described below depend on firefly luciferase-based, indirect measurement of total ATP consumption by the kinase following incubation with substrate and ATP. 25 μl of Rho kinase assay buffer (20 mM Tris-HCL [pH 7.5], 1 mM MgCl2, 0.4 mM CaCl2, 0.15 mM EGTA, 0.1 mg/ml bovine serum albumin) containing 0.82 μg/ml of recombinant N-terminal GST-tagged human Rho kinase 1 (ROCK1, amino acids 1-535, Invitrogen Inc., cat. #PV-3691) or recombinant N-terminal GST-tagged human Rho kinase 2 (ROCK2, amino acids 1-552, Invitrogen Inc., cat #PV3759), 100 μg/ml S6 peptide substrate (related to amino acids 218-249 of the human 40S ribosomal protein S6, and suitable for ROCK1 or ROCK2, e.g. Upstate/Millipore Inc., cat #12-420), and 3 µM ATP are dispensed to wells of a 384 multi-well opaque plate. The plate is centrifuged for 30 seconds at approximately 200×g. 240 nl of test compound in DMSO is dispensed to each well by passive pin transfer. The lag phase of this in vitro kinase reaction permits addition of compounds soon after the reaction initiates. The reaction is allowed to incubate at 30° C. for 2 hours. The assay plates are sealed and maintained in a humidified environment. After 2 hours, 25 μl of easylite protein kinase assay reagent (Perkin-Elmer, Inc.) is dispensed. After an additional 10 minute incubation at room temperature (about 22° C.), luminescence activity is measured on a Molecular Devices Analyst multi-mode plate reader or other suitable plate reader. Kinase inhibition results in less ATP consumption, and therefore increased luminescence signal. Negative control activity is measured with DMSO lacking any test compound. The positive control is 2-methyl-1-(4-methylisoquinolin-5-ylsulfonyl)perhydro-1,4-diazepine hydrochloride (aka H-1152P, HCl salt). Efficacy is measured as a percentage of positive control activity. […] In some cases, kinase reactions and compound testing are performed in 1536 multi-well plates under similar conditions, with assay volumes appropriately scaled. The designation NT means the cited example was not tested.

T1 sequence (O75116 1-552): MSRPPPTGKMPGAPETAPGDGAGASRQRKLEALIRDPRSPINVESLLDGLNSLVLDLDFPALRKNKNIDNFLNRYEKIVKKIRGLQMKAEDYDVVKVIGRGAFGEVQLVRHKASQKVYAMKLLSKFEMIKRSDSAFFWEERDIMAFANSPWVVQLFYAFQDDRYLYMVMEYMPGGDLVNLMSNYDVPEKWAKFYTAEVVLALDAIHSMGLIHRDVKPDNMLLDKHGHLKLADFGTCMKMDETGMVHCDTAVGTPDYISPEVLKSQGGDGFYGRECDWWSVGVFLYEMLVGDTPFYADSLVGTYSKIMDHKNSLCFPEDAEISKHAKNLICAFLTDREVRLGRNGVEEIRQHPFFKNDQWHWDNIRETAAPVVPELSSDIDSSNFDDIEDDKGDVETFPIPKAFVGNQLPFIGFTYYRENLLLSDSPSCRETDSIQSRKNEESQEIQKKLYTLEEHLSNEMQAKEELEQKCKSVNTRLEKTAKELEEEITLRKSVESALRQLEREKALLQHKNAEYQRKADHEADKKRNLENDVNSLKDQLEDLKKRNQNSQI

SMILES | pIC50
Cc1c(-c2ccnc(N)n2)sc2ccc(C(=O)N[C@H](CO)Cc3ccccc3)cc12 [Example 422, Cc1c(sc2ccc(cc12)C(═O)N[C@H](CO)Cc3ccccc3)-c4ccnc(N)n4] | > 5.30
Cc1c(-c2ccnc(N)n2)sc2ccc(C(=O)N3CCCN(Cc4ccccc4)CC3)cc12 [Example 522, Cc1c(sc2ccc(cc12)C(═O)N3CCCN(CC3)Cc4ccccc4)-c5ccnc(N)n5] | > 5.30
Cc1c(-c2ccnc(N)n2)sc2ccc(C(=O)N3CCN(CCc4ccccc4)CC3)cc12 [Example 536, Cc1c(sc2ccc(cc12)C(═O)N3CCN(CC3)CCc4ccccc4)-c5ccnc(N)n5] | > 5.30
Cc1c(-c2ccnc(N)n2)sc2ccc(C(=O)N3CCC(NC(=O)OC(C)(C)C)C3)cc12 (stereo not drawn) [Example 531, Cc1c(sc2ccc(cc12)C(═O)N3CCC(C3)NC(═O)OC(C)(C)C)-c4ccnc(N)n4] | > 5.30
Cc1c(-c2ccnc(N)n2)sc2ccc(C(=O)N3CCN(c4ccc(C(C)(C)C)cc4)CC3)cc12 [Example 562, Cc1c(sc2ccc(cc12)C(═O)N3CCN(CC3)c4ccc(cc4)C(C)(C)C)-c5ccnc(N)n5] | > 5.30
Cc1c(-c2ccnc(N)n2)sc2ccc(C(=O)NCCc3ccc(F)cc3)cc12 [Example 405, Cc1c(sc2ccc(cc12)C(═O)NCCc3ccc(F)cc3)-c4ccnc(N)n4] | > 5.30
Cc1c(-c2ccnc(N)n2)sc2ccc(C(=O)N3CCC(O)(c4ccc(Cl)cc4)CC3)cc12 [Example 558, Cc1c(sc2ccc(cc12)C(═O)N3CCC(O)(CC3)c4ccc(Cl)cc4)-c5ccnc(N)n5] | < 5.30
Cc1c(-c2ccnc(N)n2)sc2ccc(C(=O)NC(C)CCCC(C)C)cc12 (stereo not drawn) [Example 388, CC(C)CCCC(C)NC(═O)c1ccc2sc(c(C)c2c1)-c3ccnc(N)n3] | < 5.30
Cc1c(-c2ccnc(N)n2)sc2ccc(C(=O)N3CCC(C)CC3)cc12 [Example 473, CC1CCN(CC1)C(═O)c2ccc3sc(c(C)c3c2)-c4ccnc(N)n4] | > 5.30
Cc1c(-c2ccnc(N)n2)sc2ccc(C(=O)N[C@H](C)c3ccccc3)cc12 [Example 377, C[C@@H](NC(═O)c1ccc2sc(c(C)c2c1)-c3ccnc(N)n3)c4ccccc4] | > 5.30
Cc1c(-c2ccnc(N)n2)sc2ccc(C(=O)N3CCN(Cc4ccccc4)CC3)cc12 [Example 521, Cc1c(sc2ccc(cc12)C(═O)N3CCN(CC3)Cc4ccccc4)-c5ccnc(N)n5] | < 5.30
COc1cccc(N2CCN(C(=O)c3ccc4sc(-c5ccnc(N)n5)c(C)c4c3)CC2)c1 [Example 542, COc1cccc(c1)N2CCN(CC2)C(═O)c3ccc4sc(c(C)c4c3)-c5ccnc(N)n5] | < 5.30
Cc1c(-c2ccnc(N)n2)sc2ccc(C(=O)NCCCn3ccnc3)cc12 [Example 385, Cc1c(sc2ccc(cc12)C(═O)NCCCn3ccnc3)-c4ccnc(N)n4] | > 5.30
CCCCN(CC)C(=O)c1ccc2sc(-c3ccnc(N)n3)c(C)c2c1 [Example 477, CCCCN(CC)C(═O)c1ccc2sc(c(C)c2c1)-c3ccnc(N)n3] | > 5.30
COC(=O)C1CCN(C(=O)c2ccc3sc(-c4ccnc(N)n4)c(C)c3c2)CC1 [Example 504, COC(═O)C1CCN(CC1)C(═O)c2ccc3sc(c(C)c3c2)-c4ccnc(N)n4] | < 5.30
CCNC(=O)c1ccc2sc(-c3ccnc(N)n3)c(C)c2c1 [Example 330, CCNC(═O)c1ccc2sc(c(C)c2c1)-c3ccnc(N)n3] | > 5.30
Cc1c(-c2ccnc(N)n2)sc2ccc(C(=O)N(C)CCc3ccccc3)cc12 [Example 500, CN(CCc1ccccc1)C(═O)c2ccc3sc(c(C)c3c2)-c4ccnc(N)n4] | > 5.30
Cc1c(-c2ccnc(N)n2)sc2ccc(C(=O)NCC3CCCO3)cc12 (stereo not drawn) [Example 357, Cc1c(sc2ccc(cc12)C(═O)NCC3CCCO3)-c4ccnc(N)n4] | > 5.30

SMILES | pIC50
Cc1c(-c2ccnc(N)n2)sc2ccc(C(=O)NCCc3cccc(F)c3)cc12 [Example 407, Cc1c(sc2ccc(cc12)C(═O)NCCc3cccc(F)c3)-c4ccnc(N)n4] | > 5.30
Cc1c(-c2ccnc(N)n2)sc2ccc(C(=O)N(C)CC(O)c3ccc(O)cc3)cc12 (stereo not drawn) [Example 518, CN(CC(O)c1ccc(O)cc1)C(═O)c2ccc3sc(c(C)c3c2)-c4ccnc(N)n4] | > 5.30
CC(=O)c1ccc(N2CCN(C(=O)c3ccc4sc(-c5ccnc(N)n5)c(C)c4c3)CC2)cc1 [Example 550, CC(═O)c1ccc(cc1)N2CCN(CC2)C(═O)c3ccc4sc(c(C)c4c3)-c5ccnc(N)n5] | < 5.30
COc1ccccc1CCNC(=O)c1ccc2sc(-c3ccnc(N)n3)c(C)c2c1 [Example 424, COc1ccccc1CCNC(═O)c2ccc3sc(c(C)c3c2)-c4ccnc(N)n4] | > 5.30
Cc1c(-c2ccnc(N)n2)sc2ccc(C(=O)NC(C)C)cc12 [Example 334, CC(C)NC(═O)c1ccc2sc(c(C)c2c1)-c3ccnc(N)n3] | < 5.30
COc1ccc(N2CCN(C(=O)c3ccc4sc(-c5ccnc(N)n5)c(C)c4c3)CC2)cc1OC [Example 570, COc1ccc(cc1OC)N2CCN(CC2)C(═O)c3ccc4sc(c(C)c4c3)-c5ccnc(N)n5] | < 5.30
Cc1c(-c2ccnc(N)n2)sc2ccc(C(=O)NCCC#N)cc12 [Example 338, Cc1c(sc2ccc(cc12)C(═O)NCCC#N)-c3ccnc(N)n3] | > 5.30
Cc1c(-c2ccnc(N)n2)sc2ccc(C(=O)NCc3ccc(C(C)(C)C)cc3)cc12 [Example 436, Cc1c(sc2ccc(cc12)C(═O)NCc3ccc(cc3)C(C)(C)C)-c4ccnc(N)n4] | < 5.30
Cc1c(-c2ccnc(N)n2)sc2ccc(C(=O)NCc3cccc(Cl)c3)cc12 [Example 408, Cc1c(sc2ccc(cc12)C(═O)NCc3cccc(Cl)c3)-c4ccnc(N)n4] | > 5.30
Cc1c(-c2ccnc(N)n2)sc2ccc(C(=O)NCc3ccc(N(C)C)cc3)cc12 [Example 450, CN(C)c1ccc(CNC(═O)c2ccc3sc(c(C)c3c2)-c4ccnc(N)n4)cc1] | < 5.30
Cc1c(-c2ccnc(N)n2)sc2ccc(C(=O)NCc3ccc(F)c(F)c3)cc12 [Example 413, Cc1c(sc2ccc(cc12)C(═O)NCc3ccc(F)c(F)c3)-c4ccnc(N)n4] | > 5.30
Cc1ccc(S(=O)(=O)NCCNC(=O)c2ccc3sc(-c4ccnc(N)n4)c(C)c3c2)cc1 [Example 458, Cc1ccc(cc1)S(═O)(═O)NCCNC(═O)c2ccc3sc(c(C)c3c2)-c4ccnc(N)n4] | > 5.30
CCN(Cc1ccccc1)C(=O)c1ccc2sc(-c3ccnc(N)n3)c(C)c2c1 [Example 499, CCN(Cc1ccccc1)C(═O)c2ccc3sc(c(C)c3c2)-c4ccnc(N)n4] | > 5.30
CCN(CCCCO)C(=O)c1ccc2sc(-c3ccnc(N)n3)c(C)c2c1 [Example 490, CCN(CCCCO)C(═O)c1ccc2sc(c(C)c2c1)-c3ccnc(N)n3] | > 5.30
Cc1c(-c2ccnc(N)n2)sc2ccc(C(=O)N3CCCCC3CO)cc12 (stereo not drawn) [Example 489, Cc1c(sc2ccc(cc12)C(═O)N3CCCCC3CO)-c4ccnc(N)n4] | > 5.30
Cc1c(-c2ccnc(N)n2)sc2ccc(C(=O)N3CCN(c4ccc(C(F)(F)F)cc4)CC3)cc12 [Example 565, Cc1c(sc2ccc(cc12)C(═O)N3CCN(CC3)c4ccc(cc4)C(F)(F)F)-c5ccnc(N)n5] | < 5.30
Cc1c(-c2ccnc(N)n2)sc2ccc(C(=O)N3CCN(c4ccccc4C#N)CC3)cc12 [Example 532, Cc1c(sc2ccc(cc12)C(═O)N3CCN(CC3)c4ccccc4C#N)-c5ccnc(N)n5] | < 5.30
Cc1c(-c2ccnc(N)n2)sc2ccc(C(=O)NC3CCCCC3C)cc12 (stereo not drawn) [Example 371, CC1CCCCC1NC(═O)c2ccc3sc(c(C)c3c2)-c4ccnc(N)n4] | < 5.30
